Experiment [1] addresses T1, Tyrosinase (Agaricus bisporus) (UniProt O42713).
T1 sequence (whole entry): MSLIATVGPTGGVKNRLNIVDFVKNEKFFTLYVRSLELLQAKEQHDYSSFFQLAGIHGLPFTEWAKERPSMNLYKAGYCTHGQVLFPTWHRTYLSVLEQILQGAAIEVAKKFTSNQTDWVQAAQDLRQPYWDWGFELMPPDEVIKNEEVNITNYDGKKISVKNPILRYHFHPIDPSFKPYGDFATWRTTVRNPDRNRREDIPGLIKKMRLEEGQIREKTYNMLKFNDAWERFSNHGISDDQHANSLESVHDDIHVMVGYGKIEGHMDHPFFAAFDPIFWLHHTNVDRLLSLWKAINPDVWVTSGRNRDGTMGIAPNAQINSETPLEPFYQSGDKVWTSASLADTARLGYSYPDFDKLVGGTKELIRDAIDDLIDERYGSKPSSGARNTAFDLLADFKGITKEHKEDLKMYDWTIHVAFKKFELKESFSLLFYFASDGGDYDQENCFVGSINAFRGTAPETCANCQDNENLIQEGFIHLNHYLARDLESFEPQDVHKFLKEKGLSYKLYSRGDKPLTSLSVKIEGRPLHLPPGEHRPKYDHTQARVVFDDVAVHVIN
The experiment in a line: Inhibition of mushroom tyrosinase at 200 uM.

A further experiment concerns the target T2, Tyrosinase (Agaricus bisporus, UniProt O42713).
T2 sequence (O42713 whole entry): T1 sequence (whole entry)
The experiment in a line: Inhibition of mushroom tyrosinase.

Experiment [2] has as its target T1, Tyrosinase (Agaricus bisporus). The experiment in a line: Inhibition of mushroom tyrosinase at 400 uM.
The target is the same in experiment [3]. Nature of the experiment: Inhibition of mushroom tyrosinase at 100 uM.

As a reminder, the inhibition is the relative decrease from the control value, in per cent. Low readings indicate little suppression, high ones strong suppression. A word on the IC50: it is the concentration needed to halve the response being measured. Low readings indicate greater potency in that assay, high ones weaker potency in that assay. As for `C[C@]1(CO)C=Cc2cc(O)ccc2O1` [DAEDALIN A], the results for the inhibition in experiment [1], in experiment [2] and in experiment [3] were 48.4%, 61.6% and 28.6%, respectively. The IC50 at Tyrosinase was determined as 208 µM.

Values taken from ChEMBL document CHEMBL1159048, “Asymmetric syntheses of daedalin A and quercinol and their tyrosinase inhibitory activity” (Bioorg Med Chem Lett, 2010).
